PMC5011342, “A high throughput drug screening assay to identify compounds that promote oligodendrocyte differentiation using acutely dissociated and purified oligodendrocyte precursor cells” (BMC Research Notes, 2016)
Where two headings read alike, the source gives them in different places.

How the values were obtained:
[1] = test system: acutely dissociated and purified rat OPCs; assay: Acute OL differentiation assay (MBP expression/cell, immunofluorescent image quantification); assay type: cell-based; conditions: for activation at 2 µM / activation at 10 µM / activation at 0.4 µM / activation at 0.08 µM: Rattus norvegicus; for activation at 0.08 µM: test compound at 0.08 uM, read-out: 0.08 uM (% Quet)
Summary of the method: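 Oligodendrocyte precursor cells were enriched from P6-P7 Sprague–Dawley rat brains by immunopanning (RAN-2 and GalC depletion, O4 selection), plated at 5000 cells/well in serum-free, mitogen-free differentiation media on PDL/laminin 96-well view plates, centrifuged at 200×g, and pre-incubated 1–2 h before test compounds were added in quadruplicate. On DIV4, cells were fixed, stained for MBP and DAPI, imaged automatically, and MBP expression per cell was quantified.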

expanded OPCs = assay: cells; conditions: for viability at 0.1 µM / viability at 1 µM / viability at 10 µM: Rattus norvegicus, 72 h
Summary of the method: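 Expanded OPCs seeded at 10,000 cells/well in differentiation media, then exposed to NCC library compounds at 10, 1 and 0.1 µM (quadruplicate, 0.1% DMSO) for three days. Viability read as alamarBlue fluorescence (560/590 nm) after 4 h at 37 °C; tunicamycin 5 ng/ml served as toxicity control.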

[2] = test compound at 2 uM, NCC library screen, sheet "All OLga data", relative to quetiapine, read-out: 2 uM (% Quet)
[3] = test compound at 10 uM, NCC library screen, sheet "All OLga data", relative to quetiapine, read-out: 10 uM (% Quet)
[4] = alamarBlue viability of expanded OPCs, compound at 0.1 µM, relative to DMSO control
[5] = alamarBlue viability of expanded OPCs, compound at 1 µM, relative to DMSO control
[6] = alamarBlue viability of expanded OPCs, compound at 10 µM, relative to DMSO control
[7] = 2 uM test compound, relative to quetiapine, sheet "All OLga data", read-out: OL differentiation, 2 uM (% Quet)
[8] = 10 uM test compound, relative to quetiapine, sheet "All OLga data", read-out: OL differentiation, 10 uM (% Quet)
[9] = test compound at 2 uM, MBP expression relative to quetiapine, NCC library screen, sheet "All OLga data", read-out: 2 uM (% Quet)
[10] = test compound at 10 uM, MBP expression relative to quetiapine, NCC library screen, sheet "All OLga data", read-out: 10 uM (% Quet)
[11] = read-out: 0.1 µM (% DMSO), alamarBlue viability of expanded OPCs, compound at 0.1 µM, sheet All Tox data
[12] = read-out: 1 µM (% DMSO), alamarBlue viability of expanded OPCs, compound at 1 µM, sheet All Tox data
[13] = read-out: 10 µM (% DMSO), alamarBlue viability of expanded OPCs, compound at 10 µM, sheet All Tox data
[14] = read-out: 0.1 µM (% DMSO), alamarBlue viability, NCC library compound at 0.1 µM, sheet "All Tox data"
[15] = read-out: 1 µM (% DMSO), alamarBlue viability, NCC library compound at 1 µM, sheet "All Tox data"
[16] = read-out: 10 µM (% DMSO), alamarBlue viability, NCC library compound at 10 µM, sheet "All Tox data"
[17] = 0.4 uM test compound, relative to quetiapine, sheet "All OLga data", read-out: OL differentiation, 0.4 uM (% Quet)

Structure (SMILES)	0.1 µM (% DMSO) (expanded OPCs; [4])	1 µM (% DMSO) (expanded OPCs; [5])	10 µM (% DMSO) (expanded OPCs; [6])	activation at 2 µM [1, 7]	viability at 0.1 µM (expanded OPCs; [11])	viability at 1 µM (expanded OPCs; [12])	viability at 10 µM (expanded OPCs; [13])	further results
Cc1sc(N)c(C(=O)c2cccc(C(F)(F)F)c2)c1C [PD 81723]								0.4 uM (% Quet) ([1]; test compound at 0.4 uM, NCC library screen, sheet "All OLga data", relative to quetiapine): 4.2 % Quet; 2 uM (% Quet) ([1]; test compound at 2 uM, NCC library screen, sheet "All OLga data", relative to quetiapine): -21.8 % Quet; 0.1 µM (% DMSO) (expanded OPCs; alamarBlue viability, NCC library compound at 0.1 µM, sheet "All Tox data"): 90.2 % DMSO; 1 µM (% DMSO) (expanded OPCs; alamarBlue viability, NCC library compound at 1 µM, sheet "All Tox data"): 90.8 % DMSO; 10 µM (% DMSO) (expanded OPCs; alamarBlue viability, NCC library compound at 10 µM, sheet "All Tox data"): 57.3 % DMSO
COc1cc(Cc2cnc(N)nc2N)cc(OC)c1OC [Trimethoprim]	93.8 % DMSO	89.7 % DMSO	86.5 % DMSO					activation at 2 µM [1, 2]: -30.5%; activation at 10 µM [1, 3]: -40.8%
CCOC(=O)[C@H](CCc1ccccc1)N[C@@H](C)C(=O)N1[C@H](C(=O)O)C[C@@H]2CCC[C@@H]21 [Ramipril]				-3.3%	90.8%	98.4%	100%	activation at 10 µM [1, 8]: -14.5%; activation at 2 µM [1, 9]: 2.5%; activation at 10 µM [1, 10]: -1.1%; 0.1 µM (% DMSO) (expanded OPCs; rat, 3 days, 0.1 µM): 92.1 % DMSO; 1 µM (% DMSO) (expanded OPCs; rat, 3 days, 1 µM): 96.0 % DMSO; 10 µM (% DMSO) (expanded OPCs; rat, 3 days, 10 µM): 96.0 % DMSO
COc1ccc2cc(CCC(C)=O)ccc2c1 [Nabumetone]								activation at 2 µM [1, 2]: 5.8%; activation at 10 µM [1, 3]: 14.1%; viability at 0.1 µM (expanded OPCs; [14]): 92%; viability at 1 µM (expanded OPCs; [15]): 90.9%; viability at 10 µM (expanded OPCs; [16]): 94.8%
CCCC(C)(COC(N)=O)COC(=O)NC(C)C (centres unmarked) [Carisoprodol]	92.1 % DMSO	90.4 % DMSO	89.3 % DMSO					activation at 2 µM [1, 9]: -33%; activation at 10 µM [1, 10]: -33%
c1cncc([C@@H]2CCCN2)c1 [Nornicotine]				18.1%	86%	101%	98.4%	activation at 10 µM [1, 8]: 10.4%
COc1cc(NC(C)CCCN)c2ncccc2c1 (centres unmarked) [Primaquine]	90.1 % DMSO	66.2 % DMSO	32.4 % DMSO					activation at 0.4 µM ([1]; read-out: 0.4 uM (% Quet)): -10%; activation at 2 µM ([1]; read-out: 2 uM (% Quet)): -37.5%
O=C1CCc2ccc(OCCCCN3CCN(c4cccc(Cl)c4Cl)CC3)cc2N1 [Aripiprazole]				-18.8%	88.2%	86.5%	11.3%	activation at 0.4 µM [1, 17]: -30.6%
CNC[C@H](O)c1ccc(O)c(O)c1 [Epinephrine]	101.9 % DMSO	92.7 % DMSO	81.7 % DMSO					activation at 2 µM [1, 9]: -7.6%; activation at 10 µM [1, 10]: -15%
C[n+]1ccccc1/C=N/O [Pralidoxime]								activation at 2 µM [1, 2]: -5%; activation at 10 µM [1, 3]: -3.8%; viability at 0.1 µM (expanded OPCs; [14]): 90.3%; viability at 1 µM (expanded OPCs; [15]): 93.1%; viability at 10 µM (expanded OPCs; [16]): 89.1%
CCCc1cc(=O)[nH]c(=S)[nH]1 [Propylthiouracil]	90.3 % DMSO	95.9 % DMSO	90.8 % DMSO					activation at 2 µM [1, 2]: -0.9%; activation at 10 µM [1, 3]: 11.7%
NC(=O)N1c2ccccc2CC(=O)c2ccccc21 [Oxcarbazepine]				-28.9%	102%	92%	73.5%	activation at 10 µM [1, 8]: -57.8%
Cc1ncc([N+](=O)[O-])n1CC(O)CCl (centres unmarked) [Ornidazole]				4.7%				activation at 10 µM [1, 8]: 13%; viability at 0.1 µM (expanded OPCs; [14]): 106%; viability at 1 µM (expanded OPCs; [15]): 91.3%; viability at 10 µM (expanded OPCs; [16]): 82.2%
O=C1NC(=O)C(c2ccccc2)(c2ccccc2)N1 [Phenytoin]	88.8 % DMSO	86.9 % DMSO	83.9 % DMSO					activation at 2 µM [1, 9]: -25.2%; activation at 10 µM [1, 10]: -26.2%
CN1CCN(CCCN2c3ccccc3Sc3ccc(Cl)cc32)CC1 [Prochlorperazine, reference compound]				-12.5%	122%	107%	12.6%	activation at 0.4 µM [1, 17]: 110%; hit in OL differentiation assay, MRF-TMC ([1]; ● = confirmed hit in this paper's assay): ●
CC12CC3CC(C)(C1)CC(N)(C3)C2 [Memantine]	93.3 % DMSO	84.1 % DMSO	67.0 % DMSO	-9.2%	97.8%	93.2%	59.7%	activation at 10 µM [1, 8]: -28.3%; activation at 2 µM [1, 9]: -64.4%; activation at 10 µM [1, 10]: -100%
COc1cc(C(=O)NS(=O)(=O)c2ccccc2C)ccc1Cc1cn(C)c2ccc(NC(=O)OC3CCCC3)cc12 [Zafirlukast]				-96.7%				activation at 0.4 µM [1, 17]: -24.7%; viability at 0.1 µM (expanded OPCs; [14]): 94.9%; viability at 1 µM (expanded OPCs; [15]): 78.7%; viability at 10 µM (expanded OPCs; [16]): 41.9%
CNCCC=C1c2ccccc2CCc2ccccc21 [Nortriptyline]	66.6 % DMSO	28.2 % DMSO	13.8 % DMSO					activation at 0.08 µM ([1]; NCC library screen, sheet "All OLga data", relative to quetiapine): 2.3%; activation at 0.4 µM ([1]; test compound at 0.4 uM, NCC library screen, sheet "All OLga data", relative to quetiapine, read-out: 0.4 uM (% Quet)): -28.1%
O=C(O)c1cccnc1 [Niacin]	92.4 % DMSO	94.0 % DMSO	85.5 % DMSO					activation at 2 µM [1, 2]: -3.6%; activation at 10 µM [1, 3]: 3.6%
CCOC(=O)c1cncn1[C@H](C)c1ccccc1 [Etomidate]	89.9 % DMSO	87.4 % DMSO	88.3 % DMSO					activation at 2 µM [1, 9]: 10.1%; activation at 2 µM [1, 2]: -2.5%; activation at 10 µM [1, 10]: -7.1%; activation at 10 µM [1, 3]: -8.3%; viability at 0.1 µM (expanded OPCs; [14]): 101%; viability at 1 µM (expanded OPCs; [15]): 87.4%; viability at 10 µM (expanded OPCs; [16]): 83%
CO/N=C(\C(=O)N[C@@H]1C(=O)N2C(C(=O)O)=C(COC(N)=O)CS[C@H]12)c1ccco1 [Cefuroxime]	91.1 % DMSO	94.9 % DMSO	91.5 % DMSO					activation at 2 µM [1, 9]: 13.5%; activation at 10 µM [1, 10]: 13.9%
COC(=O)Nc1nc2ccc(C(=O)c3ccccc3)cc2[nH]1 [Mebendazole]	47.2 % DMSO	53.6 % DMSO	45.7 % DMSO					activation at 0.08 µM ([1]; MBP expression relative to quetiapine, NCC library screen, sheet "All OLga data"): -29.9%; activation at 0.4 µM ([1]; test compound at 0.4 uM, MBP expression relative to quetiapine, NCC library screen, sheet "All OLga data", read-out: 0.4 uM (% Quet)): -139%
NS(=O)(=O)c1cc2c(cc1C(F)(F)F)NCNS2(=O)=O [Hydroflumethiazide]	104.6 % DMSO	96.9 % DMSO	87.1 % DMSO					activation at 2 µM [1, 2]: -24.5%; activation at 10 µM [1, 3]: -39%
CN1[C@@H]2CC[C@H]1C[C@@H](OC(=O)c1c[nH]c3ccccc13)C2 [Tropisetron]				37.9%	98.4%	90.9%	82.5%	activation at 10 µM [1, 8]: 16.9%
CC1(C)C[C@@H]1C(=O)N/C(=C\CCCCSC[C@H](N)C(=O)O)C(=O)O [Cilastatin]								activation at 2 µM ([1]; read-out: OL differentiation, 2 uM (% Quet)): -1.9%; activation at 10 µM ([1]; read-out: OL differentiation, 10 uM (% Quet)): -4.3%; viability at 0.1 µM (expanded OPCs; read-out: 0.1 µM (% DMSO)): 96.8%; viability at 1 µM (expanded OPCs; read-out: 1 µM (% DMSO)): 95.5%; viability at 10 µM (expanded OPCs; read-out: 10 µM (% DMSO)): 89.5%
CCOC(=O)[C@H](CCc1ccccc1)N[C@H]1CCc2ccccc2N(CC(=O)O)C1=O [Benazepril]				-27.7%	84.6%	88.2%	93.6%	activation at 10 µM [1, 8]: -26.2%
